Assays:
[1] = target: T1, TYK2-JH2 (aa 575-869, in-house) protein (Homo sapiens, UniProt P29597); assay: TYK2-JH2 biochemical assay (HTRF probe displacement); format: binding; settings: Biochemical assay; read-out: TYK2-JH2 IC50
T1 construct: TYK2-JH2 (aa 575-869, in-house) protein; made in house
Method in brief: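 Recombinant TYK2-JH2 (0.2 nM) was pre-incubated 0.5 h at room temperature with compounds (10 doses, 5-fold dilution; 500× DMSO stocks from 500 uM) in 20 mM HEPES pH 7.5, 10 mM MgCl2, 0.005% BSA, 2 mM DTT, 0.015% Brij-35. Probe displacement was read by HTRF (ex337, em620/665 nm); IC50 from four-parameter logistic fit.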

[2] = tested on: JAK2, TYK2/p-STAT4 (Tyr693) activated by IL-12 in NK-92 cell line; assay: IL-12-JAK2, TYK2/p-STAT4 (Tyr693) inhibition IC50 cellular assay; format: cell-based; settings: NK92, Cellular assay; read-out: pSTAT4/IL-12 IC50
Method in brief: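 NK-92 cells were starved overnight without IL-2 and preincubated 1 h at 37° C with compound (8 doses, 10000–0.61 nM, 4-fold, 0.2% DMSO). They were then stimulated with IL-12 (40 ng/ml final) for 30 min. Lysate p-STAT4 (Tyr693) was read by AlphaLISA SureFire; IC50 from four-parameter logistic fit.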

pSTAT5/GM-CSF = pSTAT5/GM-CSF cellular assay (JAK2 selectivity); format: cell-based; settings: for Selectivity fold (TYK2/JAK2): pSTAT5/GM-CSF IC50 over pSTAT4/IL-12 IC50

T1 sequence (P29597 575-869): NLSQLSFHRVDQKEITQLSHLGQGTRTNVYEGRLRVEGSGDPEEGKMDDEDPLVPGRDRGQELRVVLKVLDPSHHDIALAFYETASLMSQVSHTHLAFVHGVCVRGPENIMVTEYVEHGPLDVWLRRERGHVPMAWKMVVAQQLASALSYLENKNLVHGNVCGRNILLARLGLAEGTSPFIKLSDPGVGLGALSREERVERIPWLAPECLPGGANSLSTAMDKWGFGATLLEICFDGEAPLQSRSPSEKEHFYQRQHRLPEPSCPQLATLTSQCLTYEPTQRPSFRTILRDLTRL

Row | SMILES | IC50 [1] | IC50 [2] | IC50 (pSTAT5/GM-CSF) | Selectivity fold (TYK2/JAK2) (pSTAT5/GM-CSF)
1 | CC(=O)Nc1cc(Nc2cccc(S(C)(=O)=O)c2)c(-c2ccn(C)n2)cn1 [Example J6, N-(5-(1-methyl-1H-pyrazol-3-yl)-4-((3-(methylsulfonyl)phenyl)amino)pyridin-2-yl)acetamide] | 0.033 nM | 7.94 nM | > 10000 nM | >1259 fold
2 | CC(=O)Nc1cc(Nc2cc(C#N)cc(S(C)(=O)=O)c2)c(-c2ccn(C)n2)cn1 [Example J7, N-(4-((3-cyano-5-(methylsulfonyl)phenyl)amino)-5-(1-methyl-1H-pyrazol-3-yl)pyridin-2-yl)acetamide] | 0.19 nM | 66.2 nM | > 10000 nM | >150 fold
3 | CC(=O)Nc1cc(Nc2cc(C)cc(S(C)(=O)=O)c2)c(-c2ccn(C)n2)cn1 [Example J8, N-(5-(1-methyl-1H-pyrazol-3-yl)-4-((3-methyl-5-(methylsulfonyl)phenyl)amino)pyridin-2-yl)acetamide] | 0.073 nM | 7.67 nM | > 10000 nM | >1303 fold
4 | COc1cc(Nc2cc(NC(C)=O)ncc2-c2ccn(C)n2)cc(S(C)(=O)=O)c1 [Example J9, N-(4-((3-methoxy-5-(methylsulfonyl)phenyl)amino)-5-(1-methyl-1H-pyrazol-3-yl)pyridin-2-yl)acetamide] | 0.083 nM | 6.54 nM | > 10000 nM | >1529 fold
5 | CC(=O)Nc1cc(Nc2cc(OC(F)(F)F)cc(S(C)(=O)=O)c2)c(-c2ccn(C)n2)cn1 [Example J10, N-(5-(1-methyl-1H-pyrazol-3-yl)-4-((3-(methylsulfonyl)-5-(trifluoromethoxy)phe-nyl)amino)pyridin-2-yl)acetamide] | 0.05 nM | 6.34 nM | > 10000 nM | >1577 fold
6 | CC(=O)Nc1cc(Nc2cc(O[C@H]3C[C@H](O)C3)cc(S(C)(=O)=O)n2)c(-c2ccn(C)n2)cn1 [Example J16, N-(4-((4-((trans)-3-hydroxycyclobutoxy)-6-(methylsulfonyl)pyridin-2-yl)amino)-5-(1-methyl-1H-pyrazol-3-yl)pyridin-2-yl)acetamde] | 0.015 nM | 2.52 nM | > 10000 nM | >3968 fold
7 | CC(=O)Nc1cc(Nc2cc(O[C@H]3C[C@@H](O)C3)cc(S(C)(=O)=O)n2)c(-c2ccn(C)n2)cn1 [Example J17, N-(4-((4-((cis)-3-hydroxycyclobutoxy)-6-(methylsulfonyl)pyridin-2-yl)amino)-5-(1-methyl-1H-pyrazol-3-yl)pyridin-2-yl)acetamide] | 0.043 nM | 6.8 nM | > 10000 nM | >1470 fold
8 | COC1CC(Oc2cc(Nc3cc(NC(C)=O)ncc3-c3ccn(C)n3)nc(S(C)(=O)=O)c2)C1 (stereo not drawn) [Example J18, N-(4-((4-(3-methoxycyclobutoxy)-6-(methylsulfonyl)pyridin-2-yl)amino)-5-(1-methyl-1H-pyrazol-3-yl)pyridin-2-yl)acetamide] | 0.028 nM | 0.399 nM | > 10000 nM | >25062 fold
9 | COc1ccc(S(C)(=O)=O)nc1Nc1cc(NC(C)=O)ncc1-c1ccn(C)n1 [Example J23, N-(4-((3-methoxy-6-(methylsulfonyl)pyridin-2-yl)amino)-5-(1-methyl-1H-pyrazol-3-yl)pyridin-2-yl)acetamide] | 0.044 nM | 0.862 nM | 1350 nM | 1570 fold

Continued, in another order:

Row | IC50 [1] | IC50 [2] | IC50 (pSTAT5/GM-CSF) | SMILES | Selectivity fold (TYK2/JAK2) (pSTAT5/GM-CSF)
10 | 0.017 nM | 0.275 nM | 6420 nM | CC(=O)Nc1cc(Nc2cccc(S(C)(=O)=O)n2)c(-c2ccn(C)n2)cn1 [Example J11, N-(5-(1-methyl-1H-pyrazol-3-yl)-4-((6-(methylsulfonyl)pyridin-2-yl)amino)pyridin-2-yl)actamide] | 23327 fold
11 | 0.017 nM | 0.847 nM | > 10000 nM | COCCOc1cc(Nc2cc(NC(C)=O)ncc2-c2ccn(C)n2)nc(S(C)(=O)=O)c1 [Example J12, N-(4-((4-(2-methoxyethoxy)-6-(methylsulfonyl)pyridin-2-yl)amino)-5-(1-methyl-1H-pyrazol-3-yl)pyridin-2-yl)acetamide] | >11806 fold
12 | 0.054 nM | 1.18 nM | > 10000 nM | COC(C)COc1cc(Nc2cc(NC(C)=O)ncc2-c2ccn(C)n2)nc(S(C)(=O)=O)c1 (stereo not drawn) [Example J13, N-(4-((4-(2-methoxypropoxy)-6-(methylsulfonyl)pyridin-2-yl)amino)-5-(1-methyl-1H-pyrazol-3-yl)pyridin-2-yl)acetamide] | >8474 fold
13 | 0.033 nM | 0.792 nM | > 10000 nM | CO[C@H](C)COc1cc(Nc2cc(NC(C)=O)ncc2-c2ccn(C)n2)nc(S(C)(=O)=O)c1 [Example J14, (R)-N-(4-((4-(2-methoxypropoxy)-6-(methylsulfonyl)pyridin-2-yl)amino)-5-(1-methyl-1H-pyrazol-3-yl)pyridin-2-yl)acetamide] | >12626 fold
14 | 0.016 nM | 5.9 nM | > 10000 nM | CC(=O)Nc1cc(Nc2cc(OCCO)cc(S(C)(=O)=O)n2)c(-c2ccn(C)n2)cn1 [Example J15, N-(4-((4-(2-hydroxyethoxy)-6-(methylsulfonyl)pyridin-2-yl)amino)-5-(1-methyl-1H-pyrazol-3-yl)pyridin-2-yl)acetamide] | >1694 fold
15 | 0.015 nM | 0.882 nM | > 10000 nM | COCc1cc(Nc2cc(NC(C)=O)ncc2-c2ccn(C)n2)nc(S(C)(=O)=O)c1 [Example J19, N-(4-((4-(methoxymethyl)-6-(methylsulfonyl)pyridin-2-yl)amino)-5-(1-methyl-1H-pyrazol-3-yl)pyridin-2-yl)acetamide] | >1137 fold
16 | 0.026 nM | 3 nM | > 10000 nM | CC(=O)Nc1cc(Nc2cc(OCC#N)cc(S(C)(=O)=O)n2)c(-c2ccn(C)n2)cn1 [Example J20, N-(4-((4-(cyanomethoxy)-6-(methylsulfonyl)pyridin-2-yl)amino)-5-(1-methyl-1H-pyrazol-3-yl)pyridin-2-yl)acetamide] | >3333 fold
17 | 0.017 nM | 0.72 nM | > 10000 nM | COc1cc(Nc2cc(NC(C)=O)ncc2-c2ccn(C)n2)nc(S(C)(=O)=O)c1 [Example J21, N-(4-((4-methoxy-6-(methylsulfonyl)pyridin-2-yl)amino)-5-(1-methyl-1H-pyrazol-3-yl)pyridin-2-yl)acetamide] | >13888 fold
18 | 0.037 nM | 1.93 nM | > 10000 nM | CC(=O)Nc1cc(Nc2cc(OC3COC3)cc(S(C)(=O)=O)n2)c(-c2ccn(C)n2)cn1 [Example J22, N-(5-(1-methyl-1H-pyrazol-3-yl)-4-((6-(methylsulfonyl)-4-(oxetan-3-yloxy)pyridin-2-yl)amino)pyridin-2-yl)acetamide] | >5181 fold

— patent US20240043435A1, “TYK-2 INHIBITOR” (BEIGENE, LTD., priority 2020, published 2024)
